Assay [1] in a line: Competitive inhibition of metallo-beta-lactamase IMP-1 expressed in Escherichia coli BL21(DE3) using benzylpenicillin as substrate by 96-well plate assay.
A short description of assay [2]: Un-competitive inhibition of metallo-beta-lactamase IMP-1 expressed in Escherichia coli BL21(DE3) using benzylpenicillin as substrate by 96-well plate assay.
A short description of assay [3]: Competitive inhibition of metallo-beta-lactamase IMP-1 expressed in Escherichia coli BL21(DE3) using penicillin G as substrate by 96-well plate assay.
Assay [4] can be described thus: Competitive inhibition of metallo-beta-lactamase IMP-1 expressed in Escherichia coli BL21(DE3) using penicillin G as substrate by cuvette assay.

Data on 10 compounds can be found in ChEMBL document CHEMBL1777712, “The identification of new metallo-β-lactamase inhibitor leads from fragment-based screening” (Bioorg Med Chem Lett, 2011).

The term Ki denotes a measure of affinity in units of concentration, obtained from inhibition or displacement. Read a high Ki as a looser hold on the target.

Each structure is given as a SMILES string. A value given as a limit tells only on which side of the number the result lay.

`Nc1ccc(Cn2ccnc2)cc1`: the inhibition constant Ki in assay [1] is 1510 µM; in assay [2] it was 1180 µM.

On to `NC(=O)Cc1ccc(F)cc1Cl`, for which the Ki in assay [1] amounted to 760 µM; in assay [2], 680 µM.

For the compound `Cn1c(S)nnc1C(F)(F)F`, the Ki in assay [1] is 970 µM; in assay [2], over 2000 µM.

In the case of `Nc1ccc(C(F)(F)F)cc1N`, the Ki in assay [1] was 990 µM; in assay [2] it was 430 µM.

Take `OCc1ccc(Cn2ccnc2)cc1`: the Ki in assay [1] was over 2000 µM; in assay [2], 790 µM.

Consider `C[C@H](CS)C(=O)N1CCC[C@H]1C(=O)O` [CAPTOPRIL], for which the Ki in assay [3] is 7.2 µM; in assay [4], 12.5 µM; in assay [2], over 2000 µM.

In the case of `Nc1cccc(Cn2ccnc2)c1`, the Ki in assay [1] stood at 1640 µM; in assay [2], 780 µM.

In the case of `OCc1ccc(-n2ccnc2)cc1`, the Ki in assay [1] was over 2000 µM; in assay [2], 500 µM.

As for `COC(=O)c1cccc(CN)c1`, the Ki in assay [1] is 890 µM; in assay [2], 410 µM.

For the compound `Nc1cccc(-c2cccnc2)c1`, the results for the Ki in assay [1] and in assay [2] were 510 µM and 900 µM, respectively.
